Measurements from patent US5358947A, “Angiotensin II receptor blocking 2,3-substituted pyrazolo[1,5-a]-1,3,5-triazin-4(3H)-ones” (American Cyanamid Company, priority 1993, dated 1994).
Values joined by “and” are separate entries in the source; they are usually repeats but may differ in a detail not shown here. Equal values may be shown once.

System: ANGIOTENSIN II (AII) VASOPRESSOR RESPONSE
Experiment: AII Challenge: angiotensin II (AII) vasopressor response in conscious rats
Format: in vivo
Design: Response After AII / Change / Average Change: unit not given here
Settings: 10 mg/kg i.v.; for Change / Response After AII / Control Before AII: individual rat, listed as Ex. 12; for Control Before AII: in mmHg (unit assumed); for % Inhibition / Average Change: n = 2
Excerpt: By administering a compound of this invention to a rat, and then challenging with angiotensin II, a blockage of the vasopressor response is realized.
Conscious Male Okamoto-Aoki SHR, 16-20 weeks old, weighing approximately 330 g are purchased from Charles River Labs (Wilmington, Mass.). Conscious rats are restrained in a supine position with elastic tape. The area at the base of the tail is locally anesthetized by subcutaneous infiltration with 2% procaine. The ventral caudal artery and vein are isolated, and a cannula made of polyethylene (PE) 10-20 tubing (fused together by heat) is passed into the lower abdominal aorta and vena cava, respectively. The cannula is secured, heparinized (1,000 I.U./ml), sealed and the wound is closed. The animals are placed in plastic restraining cages in an upright position. The cannula is attached to s Statham P23Db pressure transducer, and pulsatile blood pressure is recorded to 10-15 minutes with a Gould Brush recorder. (Chan et al., (Drug Development Res., 18:75-94, 1989).
Angiotensin II (human sequence, Sigma Chem. Co., St. Louis, Mo.) of 0.05 and 0.1 ug/kg i.v. is injected into all rats (predosing response.). Then a test compound, vehicle or a known angiotensin II antagonist is administered i.v., i.p. or orally to each set of rats. The two doses of angiotensin II are given to each rat again at 30, 60, 90, 120, 180, 240 and 300 minutes post dosing the compound or vehicle. The vasopressor response of angiotensin II by a compound is calculated using the vasopressor response (increase in systolic blood pressure) of angiotensin II of each rat predosing the compound as 100%. A compound is considered active if at 30 mg/kg i.v. it antagonized at least 50% of the response.

[1] = AII 0.05 mcg/kg, 30 min post dose
[2] = AII 0.05 mcg/kg, 60 min post dose
[3] = AII 0.05 mcg/kg, 90 min post dose
[4] = AII 0.05 mcg/kg, 120 min post dose
[5] = AII 0.05 mcg/kg, 180 min post dose
[6] = AII 0.05 mcg/kg, 240 min post dose
[7] = AII 0.05 mcg/kg, 300 min post dose
[8] = AII 0.1 mcg/kg, 30 min post dose
[9] = AII 0.1 mcg/kg, 60 min post dose
[10] = AII 0.1 mcg/kg, 90 min post dose
[11] = AII 0.1 mcg/kg, 120 min post dose
[12] = AII 0.1 mcg/kg, 180 min post dose
[13] = AII 0.1 mcg/kg, 240 min post dose
[14] = AII 0.1 mcg/kg, 300 min post dose

SMILES: CCCCc1nc2cc(-c3ccc(F)cc3)nn2c(=O)n1Cc1ccc(-c2ccccc2-c2nnn[nH]2)cc1 [Example 12, 2-Butyl-7-(4-fluorophenyl)-3-[[2'-(1H-tetrazol-5-yl)[1,1'-biphenyl]-4-yl]methyl]pyrazolo[1,5-a]-1,3,5-triazin-4(3H)-one]
- Change [1]: 10 and 20
- Response After AII [1]: 205 and 245
- Control Before AII [1]: 195 and 225
- % Inhibition [1]: 73%
- Average Change [1]: 15
- Change [2]: 20 and 10
- Response After AII [2]: 200 and 240
- Control Before AII [2]: 180 and 230
- % Inhibition [2]: 7%
- Average Change [2]: 15
- Change [3]: 20 and 25
- Response After AII [3]: 185 and 250
- Control Before AII [3]: 165 and 225
- % Inhibition [3]: 59%
- Average Change [3]: 22.5
- Change [4]: 25 and 30
- Response After AII [4]: 185 and 255
- Control Before AII [4]: 160 and 225
- % Inhibition [4]: 50%
- Average Change [4]: 27.5
- Change [5]: 10 and 33
- Response After AII [5]: 195 and 240
- Control Before AII [5]: 185 and 207
- % Inhibition [5]: 61%
- Average Change [5]: 21.5
- Change [6]: 10 and 35
- Response After AII [6]: 195 and 255
- Control Before AII [6]: 185 and 220
- % Inhibition [6]: 59%
- Average Change [6]: 22.5
- Change [7]: 15 and 35
- Response After AII [7]: 200 and 260
- Control Before AII [7]: 185 and 225
- % Inhibition [7]: 55%
- Average Change [7]: 25
- Change [8]: 10 and 15
- Response After AII [8]: 210 and 250
- Control Before AII [8]: 200 and 235
- % Inhibition [8]: 76%
- Average Change [8]: 12.5
- Change [9]: 15 and 30
- Response After AII [9]: 205 and 250
- Control Before AII [9]: 190 and 220
- % Inhibition [9]: 57%
- Average Change [9]: 22.5
- Change [10]: 30 and 25
- Response After AII [10]: 200 and 260
- Control Before AII [10]: 170 and 235
- % Inhibition [10]: 48%
- Average Change [10]: 27.5
- Change [11]: 25 and 42
- Response After AII [11]: 195 and 267
- Control Before AII [11]: 170 and 225
- % Inhibition [11]: 36%
- Average Change [11]: 33.5
- Change [12]: 15 and 40
- Response After AII [12]: 200 and 250
- Control Before AII [12]: 185 and 210
- % Inhibition [12]: 48%
- Average Change [12]: 27.5
- Change [13]: 15 and 45
- Response After AII [13]: 200 and 270
- Control Before AII [13]: 185 and 225
- % Inhibition [13]: 43%
- Average Change [13]: 30
- Change [14]: 20 and 50
- Response After AII [14]: 205 and 275
- Control Before AII [14]: 185 and 225
- % Inhibition [14]: 33%
- Average Change [14]: 35
